Here are results for one compound from ChEMBL document CHEMBL3638544, “Phenalkylamine derivatives, pharmaceutical compositions containing them, and their use in therapy” (2015).

Where only a bound is given, the exact number is not on record here.

In the assay the target is T1, Sodium- and chloride-dependent glycine transporter 1 (Homo sapiens, UniProt P48067).
T1 sequence (P48067 whole entry): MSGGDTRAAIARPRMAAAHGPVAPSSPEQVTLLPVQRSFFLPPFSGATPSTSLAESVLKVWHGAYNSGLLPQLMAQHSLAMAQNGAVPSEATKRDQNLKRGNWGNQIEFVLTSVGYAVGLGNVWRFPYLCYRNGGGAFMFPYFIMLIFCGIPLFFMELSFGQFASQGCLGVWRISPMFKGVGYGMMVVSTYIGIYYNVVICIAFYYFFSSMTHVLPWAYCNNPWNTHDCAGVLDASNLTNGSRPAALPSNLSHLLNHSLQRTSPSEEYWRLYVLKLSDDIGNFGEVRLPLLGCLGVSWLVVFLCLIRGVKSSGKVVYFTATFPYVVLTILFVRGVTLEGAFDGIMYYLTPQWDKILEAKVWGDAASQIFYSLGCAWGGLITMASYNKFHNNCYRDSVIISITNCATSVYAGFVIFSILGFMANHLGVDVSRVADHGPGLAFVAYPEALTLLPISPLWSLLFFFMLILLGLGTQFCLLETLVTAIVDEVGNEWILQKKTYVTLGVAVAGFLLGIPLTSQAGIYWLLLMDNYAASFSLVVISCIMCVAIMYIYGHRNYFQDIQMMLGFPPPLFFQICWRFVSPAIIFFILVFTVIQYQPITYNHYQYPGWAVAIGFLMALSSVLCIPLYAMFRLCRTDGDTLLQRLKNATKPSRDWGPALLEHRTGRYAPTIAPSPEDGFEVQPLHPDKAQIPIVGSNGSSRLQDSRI
Nature of the assay: Radioligand Binding Assay: Radioligand binding to human GlyT1c transporter-expressing membranes was determined as described in Mezler et al., Molecular Pharmacology 74:1705-1715, 2008.

`NCC(Cc1ccccc1)c1ccc2c(c1)CN(S(=O)(=O)CC1CC1)CC2` (stereo unspecified) displayed a Ki of under 10 µM.

Usually Ki stands for a measure of affinity in units of concentration, obtained from inhibition or displacement. Read a low Ki as a stronger hold on the target.
